These results are taken from patent US6906239B2, “Plant preparations” (priority 2002, dated 2005).

Test [1] concerns white-rot fungus. Description: White-rot fungus cultured on bagasse from treated sugar cane, lignin and chitin staining (Examples 5, 6, 8). It counts as cell-based, Phanerochaete chrysosporium. As to conditions: for Staining intensity Chitin / Staining intensity Lignin: fungus cultured three months, scale 9 to 0. The source says:
(§1) Phanerochaete chrysosporium, a lignin degrading fungus, was maintained on potato dextrose agar (PDA). Lignin degradation studies employed culturing the fungus in a liquid mineral salt medium that contained treated plant materials, such as bagasse from a plant that had been treated with a modified precursor preparation. The bagasse in the medium comprised the sole source of organic carbon for support of fungal growth. One inoculum “loop,” a standard tool used in the preparation and culturing of microbes, was used to inoculate the medium.
(§2) Staining intensity ratings were subjectively established on ten-point rating scales and used as qualitative rankings within each individual example. Unless otherwise indicated, staining for lignin present in bagasse was performed by both the phlorgluciol and hypochlorite/sulfite techniques and was rated subjectively on a ten-step scale, from most intense staining (9) to no staining (0). Staining for chitin present in the bagasse was also subjectively rated on a ten-step scale from most intense staining (9) to no staining (0). All staining techniques were performed in triplicate, unless otherwise indicated.
Technique 1: Place sections in a drop of saturated, aqueous phloroglucinol in 20% HCl. Lignin appears as deep red (9) to light purple (1).
Technique 2: Place sections in commercial hypochlorite bleach for five minutes and transfer to a 1% solution of sodium sulfite. Lignin appears as a bright red cherry color (9) that fades to brown (1) in approximately 1 hour.
Technique: Sections are autoclaved in saturated KOH for 10 minutes to convert chitin to chitosan. Washed sections are placed in a few drops of iodine-potassium iodide solution (2 gm KI in 100 ml water and add 0.2 gm I2) in 1% sulfuric acid. Abundant amounts of chitosans appear dark violet (9) and a lower concentration as a light blue stain (1). Care should be exercised since cellulose may also stain under these conditions. For this reason, if necessary, cellulose can be removed by flooding with Schweitzer's reagent (saturated copper hydroxide in ammonium hydroxide) prior to iodine-potassium iodide treatment.
In similar fashion to Example 4, sugar cane plants were treated at four weeks and also at two weeks before harvest, with five grams of the modified precursors described above, by drenching the sugar cane roots. Bagasse samples were then obtained and approximately 10 g used in the following experiment.
In this experiment, white-rot fungus was cultured on the bagasse samples for three months. Specifically, P. chrysosporium was maintained on PDA and then added to a liquid mineral salt medium that contained the treated plant materials, such as treated bagasse. One inoculum “loop,” a standard tool used in the preparation and culturing of microbes, was used to inoculate the bagasse-containing medium. The medium with the bagasse comprised the only sole source of organic carbon for support of fungal growth. After culturing the fungus on the bagasse stored in the liquid medium, the bagasse was collected from the medium and then stained for lignin and chitin.
Sugar cane plants were treated with either 0.5 g, 5 g or 50 g of 2,6-difluorocinnamic acid or 3-cholorcinnamic acid four weeks prior to harvest and also at two weeks prior to harvest. Thus, the total dosage of each modified precursor is either 1 g, 10 g, or 100 g. White-rot fungus was then cultured on the extracted bagasse samples for three months and lignin and chitin staining performed.
Glyphosine (Sigma Aldrich) is commercially available as a sugarcane ripener for use several weeks before harvest. In this example, glyphosine, at one-fourth the label rate (i.e., approximately 4 oz per acre), was added to 3-chlorocinnamic acid during drench treatments of 5 gm, both four weeks and two weeks prior to harvest. The label rate of glyphosine was 16 oz. White-rot fungus was cultured on the bagasse samples for three months according to the methodology described in Example 2.

Test [2] concerns Soil microorganisms. Description: In situ soil degradation of corn stalk from treated corn plants (Example 10). As to conditions: two sprays of 20 mM, buried in soil six months, scale 9 to 0.
From the text: Plants were cultivated in a greenhouse environment and modified precursors and control precursors were applied via a foliar spray. Treated plants were permitted to naturally mature, senesce and dry down. After dry down several centimeter long sections were taken from nodal and from internodal regions at the base of the stalk for further in situ soil treatment. After treatment, thin sections were made, stained and visually inspected. Observations were made with a dissecting or a light microscope.
(§3) Fertile sandy loam topsoil in a cultivated field that had been used for the sequential cultivation of corn for the prior two years constituted the in situ environment. The field was located in the town Ingleside on the Eastern Shore of Maryland. The tissue burial and recovery work was completed in multiple marked plots.
as §2
Treatment of corn plants included two sprays, both one month after seedling emergence and once at tasseling with a spray application of 20 mM of one of the chemicals listed in Table 7, i.e., cinnamic acid, 2,6-difluorocinnamic acid, 3-chlorocinnamic acid or 2-chloro-4-hydroxybenzaldehyde with a silicone spreader/sticker until runoff. Dried stalk samples were buried in soil, as described above, for six months from the March through August time period. All staining was done in quintuplicate.

The subject of test [3] is Soil microorganisms. The test can be described thus: In situ soil degradation of bagasse from treated sugar cane (Example 9). As to conditions: 10 grams drench at 4 and 2 weeks before harvest, buried in soil six months, scale 9 to 0.
From the text: as §3, §2
Sugar cane plants were treated four weeks and two weeks before harvest with drench applications of 10 grams of one of the chemicals listed in Table 6, i.e., cinnamic acid, 2,6-difluorocinnamic acid, 3-chlorocinnamic acid or 2-chloro-4-hydroxybenzaldehyde. Approximately, 10 g of extracted bagasse samples were mixed equally with sand, and the mixture placed into a nylon sack and buried approximately 6 inches below the ground. The samples were buried in such a fashion for six months from the March through August time period. All staining was done in quintuplicate.

The test system of another test is White rot fungus. Description: White rot fungus cultured on plant samples treated with fungicidal candidates, lignin and chitin staining (Example 12 ii). The class given is cell-based, Phanerochaete chrysosporium. The following applies: 100 ppm four weeks before harvest, fungus cultured three months, scale 9 to 0. As for the experimental part: as §2
Tulip tree, White Pine and corn plants were treated with fungicidal candidates four weeks before harvest. White rot fungus (Phanerochaete chrysosporium) was then cultured on the plant samples for three months. Staining and quantification of lignin and chitin present in plant materials was performed as described above.

Test [4] has as its system white-rot fungus. Description: White-rot fungus cultured on corn stalk fibrous extract from treated corn (Example 11). The class given is cell-based, Phanerochaete chrysosporium. The following applies: for Staining intensity Chitin / Staining intensity Lignin: corn stalk, fungus cultured three months, scale 9 to 0.
From the text: as §1, §2
Glyphosate (Sigma Aldrich) is commercially available as a no-till herbicide for use with corn. In this example glyphosate at the one-fourth the label rate (i.e., approximately 3 oz per acre) was added to 3-chlorocinnamic acid. The label rate of glyphosate was 12 oz per acre. The glyphosate was applied through a spray treatment that included two sprays, both one month after seedling emergence and once at tasseling. The spray application was applied with a silicone spreader/sticker until runoff. White-rot fungus was cultured on potato dextrose agar and then use to inoculate a medium containing the corn stalk fibrous extract as described in Example 2 above. These samples were cultured under appropriate conditions for three months.

The mark [5] stands for this setting: sugar cane bagasse, 5 g drench at 4 and 2 weeks before harvest.
[6] abbreviates: total dosage 1 gm (0.5 g at 4 and 2 weeks before harvest).
[7] abbreviates: total dosage 10 gm (5 g at 4 and 2 weeks before harvest).
The mark [8] stands for this setting: total dosage 100 gm (50 g at 4 and 2 weeks before harvest).
[9] abbreviates: Example 8, 10 gm with Glyphosine at one-fourth the label rate.
Setting [10] is: Example 8, 10 gm without glyphosine.
The mark [11] stands for this setting: two sprays of 20 mM with Glyphosate at one-fourth the label rate.
The mark [12] stands for this setting: two sprays of 20 mM, without glyphosate.

For the molecule `O=C(O)CN(CP(=O)(O)O)CP(=O)(O)O` [Glyphosine, reference compound], in the test with white-rot fungus [1] (glyphosine at one fourth the label rate added to the modified precursor, sugar cane), the “Effect on recalcitrance of lignin to biodegradation by white-rot fungi conferred by halogen-substituted precursors” value is listed as “increases the effectiveness”.

With `O=C(O)C=Cc1c(F)cccc1F` [2,6-Difluorocinnamic Acid], the “Staining intensity Chitin” value came out at 6 in the test on Soil microorganisms [2]; 4 in the test on Soil microorganisms [3]; 3 in the test with white-rot fungus [1] (setting [5]); 5 in the test on white-rot fungus [1] (setting [6]); 3 with white-rot fungus [1] (setting [7]); 2 in the test with white-rot fungus [1] (setting [8]). The “Staining intensity Lignin” value with Soil microorganisms [2] is on record as 5; with Soil microorganisms [3] it was 5; with white-rot fungus [1] (setting [5]), 5; in the test with white-rot fungus [1] (setting [6]) it was 4; in the test with white-rot fungus [1] (setting [7]), 6; in the test with white-rot fungus [1] (setting [8]), 7.

Turning to `CCCC1COC(Cn2cncn2)(c2ccc(Cl)cc2Cl)O1` (centres unmarked) [Propiconazole, 1-[[2-(2,4-dichlorophenyl)-4-propyl-1,3-dioxolan-2-yl]methyl]-1H-1,2,4-triazole], the results for the “Intensity of Chitin Stain” value in the test on White rot fungus (Corn plant), with White rot fungus (Tulip tree) and with White rot fungus (White Pine tree) were 1, 2 and 1, respectively. The figures for the “Intensity of Lignin Stain” value in the test with White rot fungus (Corn plant), with White rot fungus (Tulip tree) and in the test with White rot fungus (White Pine tree) were 8, 7 and 8, respectively.

For the molecule `O=C(O)C(F)=Cc1ccccc1` [alpha-Fluorocinnamic Acid], in the test with white-rot fungus [1] (setting [5]), the “Staining intensity Chitin” value is 6.

With `O=Cc1cc(Br)c(O)c(Br)c1` [3,5-Dibromo-4-hydroxybenzaldehyde], in the test with white-rot fungus [1] (setting [5]), the “Staining intensity Chitin” value came out at 6 and the “Staining intensity Lignin” value is reported as 5.

Consider `O=Cc1ccc(O)cc1Cl` [2-Chloro-4-hydroxybenzaldehyde], for which the “Staining intensity Chitin” value in the test with Soil microorganisms [2] was found to be 3; in the test with Soil microorganisms [3], 3; in the test with white-rot fungus [1] (setting [9]), 2; in the test on white-rot fungus [1] (setting [10]), 3; in the test on white-rot fungus [1] (setting [5]), 4. The “Staining intensity Lignin” value is reported as 6 in the test with Soil microorganisms [2]; 6 with Soil microorganisms [3]; 7 with white-rot fungus [1] (setting [9]); 6 in the test with white-rot fungus [1] (setting [10]); 3 with white-rot fungus [1] (setting [5]).

As for `O=C(O)C=Cc1cccc(Cl)c1` [3-Cholorcinnamic Acid, 3-Cholorcinnamic acid], the “Staining intensity Chitin” value in the test on Soil microorganisms [2] worked out at 4; with Soil microorganisms [3], 3; in the test on white-rot fungus [1] (setting [9]), 2; with white-rot fungus [1] (setting [10]), 3; in the test on white-rot fungus [1] (setting [5]), 7; in the test on white-rot fungus [1] (setting [6]), 4. For the same molecule, the “Staining intensity Chitin” value is recorded as 2 with white-rot fungus [1] (setting [7]), 1 with white-rot fungus [1] (setting [8]), 2 in the test with white-rot fungus [4] (setting [11]) and 3 in the test on white-rot fungus [4] (setting [12]). The “Staining intensity Lignin” value is listed as 7 in the test on Soil microorganisms [2]; 6 with Soil microorganisms [3]; 7 in the test with white-rot fungus [1] (setting [9]); 5 in the test with white-rot fungus [1] (setting [10]); 5 in the test with white-rot fungus [1] (setting [5]); 4 with white-rot fungus [1] (setting [6]). Moreover, the “Staining intensity Lignin” value with white-rot fungus [1] (setting [7]) is reported as 6; in the test on white-rot fungus [1] (setting [8]), 7; in the test on white-rot fungus [4] (setting [11]), 7; in the test on white-rot fungus [4] (setting [12]), 6.

As to `O=C(O)CNCP(=O)(O)O` [glyphosate, Glyphosate, reference compound], the “Effect on effectiveness of halogen-substituted precursor molecules in reducing lignin biodegradation by white-rot fungi” value in the test on white-rot fungus [4] (glyphosate at one-fourth the label rate added to the spray, corn) is listed as “increases the effectiveness”.

Take `c1ccc2[nH]c(-c3cscn3)nc2c1` [Thiabendazole, 2-(4-thiazolyl)benzimidazole]: the “Intensity of Chitin Stain” value in the test on White rot fungus (Corn plant) came out at 1; in the test with White rot fungus (Tulip tree) it was 1; with White rot fungus (White Pine tree), 2. For the same molecule, the “Intensity of Lignin Stain” value in the test with White rot fungus (Corn plant) was 9; in the test on White rot fungus (Tulip tree), 9; in the test with White rot fungus (White Pine tree), 8.

`O=C(O)C=Cc1ccccc1` [Cinnamic Acid, reference compound]: the “Staining intensity Chitin” value stood at 9 with Soil microorganisms [2], 8 with Soil microorganisms [3] and 9 in the test with white-rot fungus [1] (setting [5]). In addition, the “Staining intensity Lignin” value in the test with Soil microorganisms [2] is 0-1; in the test with Soil microorganisms [3] it was 1; in the test with white-rot fungus [1] (setting [5]), 1.

For `COC(=O)Nc1nc2ccccc2[nH]1` [Carbendazim, methyl-2-benzimidazole carbamate], the “Intensity of Chitin Stain” value with White rot fungus (Corn plant) was determined as 2; with White rot fungus (Tulip tree) it was 1; with White rot fungus (White Pine tree), 2. Moreover, the “Intensity of Lignin Stain” value with White rot fungus (Corn plant) amounted to 8; in the test with White rot fungus (Tulip tree) it was 8; in the test with White rot fungus (White Pine tree) it was 7.
